Measurements: publication PMC9791135, “A penetratin-derived peptide reduces the membrane permeabilization and cell toxicity of α-synuclein oligomers” (The Journal of Biological Chemistry, 2022)
Where a SMILES comes first, the peptide text is derived from it.

How the values were obtained:
Format in all cases: biochemical
[1] = biological target: T1, α-syn (Homo sapiens, UniProt P37840); test: TEM of α-syn aggregates formed with peptides; conditions: for Morphology (TEM): α-syn aggregates after incubation with peptide, versus α-syn alone; for Morphology of α-syn aggregates (TEM), in words: α-syn incubated in the presence of peptide
T1 construct: made in house; host or cells: Escherichia coli BL21 (DE3), plasmid pET11-D
Procedure: Five microliters of each fibril-containing solution were applied to 400-mesh carbon-coated and glow-discharged nickel grids for 30 s, and blotted with filter paper to remove excess sample. The grids were washed with one drop of double distilled water and then stained with 3 μl of 1% uranyl formate for 15 s. Excess stain was removed by blotting paper This step was repeated two more times. Finally, the grids were left to air dry and viewed on a Tecnai G2 Spirit (FEI Company) operating at 60 kV, and images were taken using a TemCam F416 camera (TVIPS).

[2] = biological target: T1, α-syn; test: SDS-PAGE of soluble α-syn left in supernatant after fibrillation; conditions: for Amount of soluble α-syn monomer left in the supernatant, in words: SDS-PAGE after centrifugation of fibrillated samples; for Soluble α-syn left in supernatant (SDS-PAGE gel): after end of incubation, centrifuged 13,000 rpm 15 min, versus α-syn alone
Procedure: Overall, there was a reasonable but not perfect correspondence between SDS-PAGE and ThT data.
To determine the amount of soluble α-syn, fibrillated samples were centrifuged (13,000 rpm, 15 min) and the supernatants were loaded on Bis–Tris 15% acrylamide gel with prestained protein ladder (Thermo Scientific) and run in a Bis–Tris running buffer at 150 V for 70 min, stained for 20 min in Coomassie brilliant blue (1.2 mM Coomassie brilliant blue, 5% ethanol, and 7% acetic acid), and destained overnight in a destaining solution (5% ethanol and 5% acetic acid). Gel bands were quantified using ImageJ.

[3] = biological target: T2, αSOs (Homo sapiens, UniProt P37840); test: Calcein release assay, αSOs together with peptides; conditions: for Effect on vesicle permeabilization by αSOs: αSOs at calcein^50% (5.2 μg/ml)
T2 construct: made in house; host or cells: Escherichia coli BL21 (DE3); oligomers formed by shaking the monomer and isolated by SEC (Superose 6)
Procedure: αSOs show cytotoxic properties, which have been attributed to their membrane-disrupting ability ([69]). To examine the effect of peptides on membrane permeabilization by αSOs, we used a simple calcein release assay. αSOs, peptides, and aSO–peptide mixtures at 10^−6 to 10^−1 mg/ml peptide were added to calcein-loaded DOPG vesicle, and the extent of calcein release was monitored for 30 min by the increase in fluorescence as calcein leaks out upon membrane permeabilization, leading to dilution and the loss of self-quenching. The time-dependent calcein release data from DOPG vesicles ([70], [71]) in the presence of peptides, αSOs, and αSO–peptides are shown in Figs. S9 and S10. In order to allow easy comparison of all peptides, the calcein release versus concentration (peptides and αSOs) were plotted at the plateau point of release (Fig. 5, A–C). […] Figure 5D compares calcein release percentages of data represented in Figure 5, A and B at peptide concentrations between 0.001 and 0.1 mg/ml, where we see the largest extent of calcein release in general.
Calcein-filled vesicles of DOPG were prepared as described before ([38]). Briefly, DOPG was dissolved in PBS to […], in the presence of calcein at self-quenching concentrations (70 mM) and subjected to 10 freeze–thaw cycles between liquid nitrogen and a 50 °C water bath. After 21 times extrusion through a 100 nm filter, free calcein was separated from vesicles with a PD-10 desalting column (GE Healthcare). Vesicles were stored at 4 °C and used for calcein release assays within 24 h.
Calcein release was measured by mixing peptides and/or αSOs at a final concentration of 10^−6 to 10^−1 mg/ml and 5.2 μg/ml, respectively, in 148 μl with 2 μl of calcein vesicles, and were then loaded onto a 96-well plate (Nunc, Thermo Fischer Scientific) in triplicate. The plate was sealed with Crystal clear sealing tape (Hampton Research), and fluorescence was measured (excitation: 485 nm and emission: 520 nm) for 1 h at 37 °C every 2 min with a 2 s autoshake before each reading on a fluorescence plate reader (Tecan). Finally, 2 μl Triton X-100 (0.2% [v/v]) was added to lyse vesicles, and the maximal fluorescence signal was measured for 20 min under the same reading condition. Background fluorescence was subtracted, and the average signal of calcein release before addition of Triton X-100 (F), after treatment with Triton X-100 (Ft) and for the buffer control (F0) were determined, and calcein release percentage was calculated as follow (Equation 1):(1) CalceinRelease%(CR%)=(F−F0)/(Ft−F0)

[4] = biological target: T1, α-syn; test: ATR–FTIR of fibrillated α-syn–peptide samples; conditions: for Amount of amyloid structures (ATR–FTIR), in words: fibrillated α-syn samples in the presence of peptides; for ATR–FTIR (amyloid structures): fibrillated samples after washing, versus α-syn alone
From the text: (§1) To analyze the secondary structure of the final aggregates, we recorded far-UV CD and attenuated total reflectance (ATR)–FTIR spectra for fibrillated samples after washing to remove free α-syn and peptides. […] Overall, as the concentration of peptides increases, the intensity of signal at 218 nm decreases (Fig. 4A). We observed that α-syn fibrils formed in the presence of p194, p222, p235, and p249 precipitated rapidly after mixing with these peptides. This likely gives rise to light scattering, which reduces CD signals. To overcome these artifacts, we turned to ATR–FTIR spectroscopy, which is not sensitive to scattering. […] Both far-UV CD and ATR–FTIR spectroscopy confirm extensive β-sheet structure. However, in the presence of peptides, some structural changes were observed as reflected by the decrease in the amyloid cross β-sheet structure at ∼1629 cm^−1 and increases in the random and coil structures (∼1656 and ∼1676 cm^−1, respectively) (Table 2). […] Taking all together, ATR–FTIR data are in reasonable agreement with far-UV CD.
The samples prepared in the CD section were also used to measure FTIR spectra on a Tensor 27 FTIR spectrophotometer (Bruker). About 2 μl α-syn fibrils were dried on the ATR crystal with a gentle stream of nitrogen gas. Spectra were accumulations of 68 scans in the 4000 to 1000 cm^−1 range. Baseline correlation, second derivative, and atmospheric compensation were performed with OPUS 5.5 software (Bruker, Germany). Signals in the amide I region (∼1550–1700 cm^−1) were smoothed and deconvoluted with PeakFit, version 4.12 software (ِSystat Software Inc) using Lorentzian fitting.

[5] = biological target: T1, α-syn; test: Far-UV CD of fibrillated α-syn–peptide samples; conditions: fibrillated samples after washing, signal at 218 nm; versus α-syn alone
From the text: as §1
To remove free α-syn and peptides, fibrillated samples were centrifuged (13,000 rpm, 15 min). This leaves monomeric α-syn plus unbound and free peptides in the supernatant. The supernatant was discarded, and the pellet was washed two times in the same volume of PBS buffer, pH 7.4, to ensure complete removal of monomeric α-syn and free peptides. Far-UV CD spectra were recorded at 25 °C on a Chirascan CD Spectrophotometer (Applied Photophysics) using a 0.1 mm quartz cuvette in the wavelength range of 200 to 260 nm with 1 nm bandwidth and three accumulations. The buffer spectrum was subtracted, and the results were expressed as mean residue ellipticity [θ] (deg cm^2 dmol^−1).

| Compound | Morphology (TEM) [1] | Morphology of α-syn aggregates (TEM), in words [1] | Amount of soluble α-syn monomer left in the supernatant, in words [2] | Effect on vesicle permeabilization by αSOs ([3]; peptide 10^−6 to 10^−1 mg/ml) | Amount of amyloid structures (ATR–FTIR), in words [4] | Far-UV CD (β-sheet structures) [5] | ATR–FTIR (amyloid structures) [4] | Soluble α-syn left in supernatant (SDS-PAGE gel) [2] | Reduction of αSO-induced membrane permeability ([3]; calcein-filled DOPG LUVs, peptide concentration not stated at the place) | Effect on vesicle permeabilization by αSOs ([3]; peptide 0.01 and 0.1 mg/ml) |
| --- | --- | --- | --- | --- | --- | --- | --- | --- | --- | --- |
| CC(C)C[C@H](NC(=O)[C@H](Cc1c[nH]cn1)NC(=O)[C@H](CO)NC(=O)[C@H](CO)NC(=O)[C@H](C)NC(=O)[C@@H](N)CO)C(=O)N[C@@H](Cc1c[nH]cn1)C(=O)N[C@@H](Cc1c[nH]cn1)C(=O)NCC(=O)N[C@@H](Cc1c[nH]cn1)C(=O)N[C@@H](CO)C(=O)NCC(=O)NCC(=O)O [p168] (H-SASSHLHHGHSGG-OH) | L, T, I | longer and thinner fibrils | decrease solubility | failed to affect vesicle permeabilization by αSOs | did not show significant changes in FTIR spectra | ↓↓β |  |  |  |  |
| CC[C@H](C)[C@H](NC(=O)[C@H](Cc1c[nH]c2ccccc12)NC(=O)[C@H](CCCNC(=N)N)NC(=O)[C@H](Cc1c[nH]c2ccccc12)NC(=O)[C@H](CCCCN)NC(=O)[C@@H](NC(=O)[C@H](CCCCN)NC(=O)[C@H](CCC(N)=O)NC(=O)[C@@H](N)CC(N)=O)[C@@H](C)CC)C(=O)N[C@@H](CCC(N)=O)C(=O)N[C@@H](CCCNC(=N)N)C(=O)N[C@@H](Cc1ccccc1)C(=O)N[C@@H](CCCNC(=N)N)C(=O)N[C@@H](CCCCN)C(=O)N[C@@H](CCCCN)C(=O)N[C@@H](CCSC)C(=O)O [p235] (H-NQKIKWRWIQRFRKKM-OH; N-terminus and C-terminus assumed) |  | nonfibrillar (amorphous) accumulations |  |  | decreased | ↓↓↓β | ↓↓↓ amyl |  |  |  |
| CC[C@H](C)[C@H](NC(=O)[C@H](Cc1ccccc1)NC(=O)[C@H](Cc1c[nH]c2ccccc12)NC(=O)[C@H](CCCNC(=N)N)NC(=O)[C@H](CC(N)=O)NC(=O)[C@@H](NC(=O)[C@H](CCC(N)=O)NC(=O)[C@H](CCCCN)NC(=O)[C@@H](N)CCSC)[C@@H](C)CC)C(=O)N[C@@H](CCCNC(=N)N)C(=O)N[C@@H](Cc1c[nH]c2ccccc12)C(=O)N[C@@H](CCC(N)=O)C(=O)N[C@@H](CCCCN)C(=O)N[C@@H](CCCCN)C(=O)N[C@@H](CCCNC(=N)N)C(=O)N[C@@H](CCCCN)C(=O)O [p249] (H-MKQINRWFIRWQKKRK-OH; N-terminus and C-terminus assumed) |  | nonfibrillar (amorphous) accumulations | decrease solubility |  | decreased | ↓↓↓β | ↓↓↓ amyl | ↓↓ | 62% |  |
| RQIKIWFQNRRFKWKK [p222, penetratin with modulated hydrophobicity] | S, N | needle-shaped and short fibrils | decrease solubility |  | decreased | ↓↓↓β | ↓↓ amyl | ↓↓ |  | increased vesicle permeabilization by αSOs |
